Source: EP2547369B1, “A NA[…] MICELLE FORMED BY AN A[…]-COPOLYMER AND ENCAPSULATING A […]” (King Saud University, priority 2010, dated 2011)

Assays:
[1] = system: Jurkat human leukemia cell line; assay: MTT assay, cytotoxicity of free and micelle-encapsulated Gd(III) complex on Jurkat; assay type: cell-based; conditions: 3 days; for cytotoxicity: 50 µM
Excerpt: (§1) The present inventors also evaluated the cytotoxicity of Gd(III) complexes using the MTT assay, another method measuring cell viability, on the Jurkat and MCF-7 cell lines (Figure 9 and 11). […] In order to estimate the concentration of Gd (III) complexes able to reduce cell viability by 50% (IC50), the present inventors plotted a linear regression line for each used cell line (Figure 10). […] It appears thus that Jurkat cells are slightly more susceptible to Gd (III) complexes than MCF-7 cells.
To compare the cytotoxicity of free and micelle-encapsulated Gd(III) complexes and to verify if the time of dialysis influences polymeric micelle cytotoxicity, the present inventors performed again the MTT assay on Jurkat cells. The cells were treated with incremental concentrations of the free and micelle-encapsulated Gd(III) complexes.
Two different cell lines were used to assess Gd(III) cytotoxicity: Jurkat, and MCF-7. Jurkat cells were seeded on two 96-well culture plates (BD Falcon) (50 µl in each well with a concentration of 4x10^5 cells/mL). Different concentrations (5 µM, 10 µM, 15 µM and 20 µM) of Gd(III) complex solution, diluted in 50 µl of RPMI-1640, were used. Each test was repeated eight times. As a negative control, cells were treated with ethanol (96%) (the same amount of ethanol present in the cells treated with a highest concentration of Gd(III) complex). Incubation was carried out for 3 days. In this experiment the toxicity of Gd(III) complex was evaluated by the 3-(4, 5-dimethylthiazol-2-yl)-2, 5-diphenyl tetrazolium bromide (MTT) assay. At the end of each incubation time 10 µl of 5 mg/mL MTT solution (AppliChem) were added to each well followed by further incubation for 4h. Then, 100 µl of 0.04 N HCL in isopropanol (BDH Prolabo) were added to the wells and formazan crystals were allowed to solubilize for 1 hour at room temperature. The formazan concentration was quantified using a spectrophotometer (Tecan Infinite M200 monochromator-based multi-function microplate reader) by measuring the absorbance at 570 nm and 630 nm. The final optical density (OD) obtained from formazan formation was calculated with the following formula: OD=L(570nm)-L(630nm). The toxicity was assessed by calculating the % of cell survival in relation to the control untreated group. […]
To assess Gd(III) complex-loaded polymeric micelle cytoxicity and to compare it with the toxicity from free Gd(III) complex, Jurkat cells were seeded on a 96-well culture plate (50 µl in each well with a concentration of 4x10^5 cells/mL). […] The cytotoxicity of Gd(III) complex and Gd(III) complex-loaded polymeric micelles was evaluated by the MTT assay following the procedure mentioned on 8.2.

Jurkat cell line = assay: Cell count with Trypan Blue, cytotoxicity of Gd(III) complex; assay type: cell-based, human; conditions: 3 days
Description: The MCF-7, MDA-MB-468, HeLa, 293T; ARPE19; D407 and S17 adherent cell lines were maintained in DMEM medium (LONZA) supplemented with 10% fetal bovine serum (FBS) (PAA), glutamine (200 mM), penicillin (10000 units/mL) and streptomycin (10000 µg/mL) from LONZA. All cell culture incubations were performed at 37°C under humidified atmosphere of 5% CO2. The Jurkat and DND41 suspension cell lines were maintained in RPMI 1640 medium (LONZA) supplemented as above. Cells were thawed at 37°C and pipetted into 10 mL of prewarmed medium. The cells were centrifuged at 300 g for 5 minutes to remove dimethylsulfoxide (DMSO) (Merck). Then, the supernatant was discarded and the pellet resuspended in 2 mL of fresh medium. The cells were placed into T25 flasks (Nunc) and 8 mL of medium was added for a final volume of 10 mL. The medium was changed every 2 days. […] The hemocytometer Neubauer chamber (Hausser Scientific) was filled with the cell suspension and uncolored viable cells were counted on an inverted light microscope (Leica DM IL). The cells were counted in four 1 mm^2 squares. The equation to calculate the cell number per cubic millimeter is the following: Number of cells counted per square millimeter × dilution used × 10. […]

[2] = system: MCF-7 breast cancer cell line; assay: MTT assay, cytotoxicity of Gd(III) complex on MCF-7; assay type: cell-based, human
Excerpt: as §1
Two different cell lines were used to assess Gd(III) cytotoxicity: Jurkat, and MCF-7. Jurkat cells were seeded on two 96-well culture plates (BD Falcon) (50 µl in each well with a concentration of 4x10^5 cells/mL). […] Each test was repeated eight times. As a negative control, cells were treated with ethanol (96%) (the same amount of ethanol present in the cells treated with a highest concentration of Gd(III) complex). Incubation was carried out for 3 days. In this experiment the toxicity of Gd(III) complex was evaluated by the 3-(4, 5-dimethylthiazol-2-yl)-2, 5-diphenyl tetrazolium bromide (MTT) assay. At the end of each incubation time 10 µl of 5 mg/mL MTT solution (AppliChem) were added to each well followed by further incubation for 4h. Then, 100 µl of 0.04 N HCL in isopropanol (BDH Prolabo) were added to the wells and formazan crystals were allowed to solubilize for 1 hour at room temperature. The formazan concentration was quantified using a spectrophotometer (Tecan Infinite M200 monochromator-based multi-function microplate reader) by measuring the absorbance at 570 nm and 630 nm. The final optical density (OD) obtained from formazan formation was calculated with the following formula: OD=L(570nm)-L(630nm). The toxicity was assessed by calculating the % of cell survival in relation to the control untreated group. The procedure described above was repeated for the MCF-7 cell line, after being seeded at 5 × 10^3 cells per each well and allowed to attach for 24h.

[3] = cited from earlier work

| Compound | toxicity (number of viable cells) ([1]; 10 µM) | cytotoxicity [1] | cytotoxicity ([1]; listed as free Gd(III) complexes) | IC50 ([1]; from linear regression line, read-out: IC50 (concentration able to reduce cell viability by 50%)) [µM] | toxicity by cell count (Jurkat cell line; 10 µM) | toxicity by cell count (Jurkat cell line; 50 µM) | toxicity (number of viable cells) ([2]; 10 µM, MTT, 3 days, MCF-7) | toxicity ([2]; 50 µM, 3 days, MCF-7 cells as printed) | IC50 ([2]; MCF-7, 3 days, MTT, from linear regression line, read-out: IC50 (concentration able to reduce cell viability by 50%)) [µM] | solubility in aqueous media [3] |
| --- | --- | --- | --- | --- | --- | --- | --- | --- | --- | --- |
| tetraaquodichloro(4,4'-ditBu-2,2'-bipyridine) gadolinium(III) chloride [Gd(III) complexes] | toxic | kill all cells | killed almost all cells | 10.2 | less toxic | very toxic | toxic | overall cell death | 12.8 | – |
| Cc1ccc2ccc3cccc4ccc1c2c34 [1-methylpyrene] | – | – | – | – | – | – | – | – | – | ca. 10^-7 M |
